Each structure is given as a SMILES string.

One assay has as its system Haemonchus contortus. Put plainly: In vivo nematode test, Haemonchus contortus / sheep. Conditions: experimentally infected sheep (Schaf), treated after the prepatent period, pure active compound in gelatin capsules, oral, dose giving complete cessation of egg excretion in faeces, read-out: Dosis effectiva. The text has this: Haemonchus contortus / Schaf
Experimentell mit Haemonchus contortus infizierte Schafe wurden nach Ablauf der Präpatenzzeit des Parasiten behandelt. Die Wirkstoffe wurden als reiner Wirkstoff in Gelatinekapseln oral appliziert.
Der Wirkungsgrad wird dadurch bestimmt, daß man die mit dem Kot ausgeschiedenen […] vor und nach der Behandlung quantitativ auszählt.
Ein völliges Sistieren der Eiausscheidung nach der Behandlung bedeutet, daß die Würmer abgetrieben wurden oder so geschädigt sind, daß sie keine Eier mehr produzeiren (Dosis effectiva).
Geprüfte Wirkstoffe und wirksame Dosierungen (Dosis effectiva) sind aus der nachfolgenden Tabelle ersichtlich: […]

The subject of assay [1] is Trichostrongylus colubriformis. Put plainly: In vivo nematode test, Trichostrongylus colubriformis / sheep. As to conditions: experimentally infected sheep (Schaf), treated after the prepatent period, pure active compound in gelatin capsules, oral, dose giving complete cessation of egg excretion in faeces, read-out: Dosis effectiva. From the text:
Trichostrongylus colubriformis / Schaf
Experimentell mit Trichostrongylus colubriformis infizierte Schafe wurden nach Ablauf der Präpatenzzeit des Parasiten behandelt. Die Wirkstoffe wurden als reiner Wirkstoff in Gelatinekapseln oral appliziert.
Der Wirkungsgrad wird dadurch bestimmt, daß man die mit dem Kot ausgeschiedenen Wurmeier vor und nach der Behandlung quantitativ auszählt.
Ein völliges Sistieren der Eiausscheidung nach der Behandlung bedeutet, daß die Würmer abgetrieben wurden oder so geschädigt sind, daß sie keine Eier mehr produzieren (Dosis effectiva).
Geprüfte Wirkstoffe und wirksame Dosierungen (Dosis effectiva) sind aus der nachfolgenden Tabelle ersichtlich.

For the compound `CSc1ncccc1C(=O)Nc1ccccc1` [Beispiel 1], the minimal effective dose in the assay on Haemonchus contortus amounted to 10 mg/kg. For `CCCSc1ncccc1C(=O)Nc1ccccc1` [Beispiel 2], the minimal effective dose (in assay [1]; in the assay with Haemonchus contortus) was 10 mg/kg each time.

As to `C=CCSc1ncccc1C(=O)Nc1ccccc1` [Beispiel 3], the minimal effective dose in assay [1] came out at 10 mg/kg. For `CCCSc1ncccc1C(=O)Nc1ccccc1Cl` [Beispiel 6], in the assay on Haemonchus contortus, the minimal effective dose came out at 5 mg/kg. Take `CSc1ncccc1C(=O)Nc1ccc(Cl)cc1` [Beispiel 7]: the minimal effective dose in assay [1] came to 5 mg/kg; in the assay with Haemonchus contortus, 10 mg/kg. With `CCCSc1ncccc1C(=O)Nc1ccc(Cl)cc1` [Beispiel 9], the minimal effective dose in the assay with Haemonchus contortus was determined as 10 mg/kg. In the case of `CCSc1ncccc1C(=O)Nc1ccc(Cl)cc1` [Beispiel 13], in assay [1], the minimal effective dose is 10 mg/kg. Regarding `CCSc1ncccc1C(=O)Nc1ccccc1` [Beispiel 24], the minimal effective dose with Haemonchus contortus stood at 10 mg/kg.

With `CCCSc1ncccc1C(=O)Nc1ccc(SC(F)(F)F)cc1` [Beispiel 29], the minimal effective dose (in assay [1]; in the assay with Haemonchus contortus) was 10 mg/kg in each case. As to `CSc1ncccc1C(=O)Nc1ccc(Sc2ccc(Cl)cc2)cc1C(F)(F)F` [Beispiel 87], the minimal effective dose in assay [1] was 10 mg/kg.

For the origin of these results see patent publication EP0480258A2, “Use of substituted 2-mercapto-nicotinic acid derivatives for combat against endoparasites, novel substituted 2-mercaptonicotinir acid derivatives and processes for their preparation” (BAYER AG, priority 1990, dated 1992).
